Source: patent US20140323562A1, “THIOSULFINATE ANTIOXIDANTS AND METHODS OF USE THEREOF” (Universition of Ottawa, priority 2011, published 2014)
Read-outs that look alike come from different tables or passages of the source. Marks after values point to notes of the source that are not given here.

Assays:
[1] = Oxidation of egg phosphatidylcholine liposomes containing the fluorescent probe H2B-PMHC; details: for effect on oxidation of liposome-embedded H2B-PMHC with one equivalent of NAC: MeOAMVN- or ABAP-mediated, 4.5-15 μM, equivalent amount of NAC, PBS pH 7.4; for inhibition of oxidation of liposome-embedded H2B-PMHC: MeOAMVN-mediated (0.2 mM), compound 1.5-15 μM; for inhibition of oxidation of liposome-embedded H2B-PMHC / radical trapping at the lipid/water interface: no thiol; for efficacy relative to α-TOH in a lipid bilayer: inferred from no effect at 15 μM (100-fold over H2BPMHC); for radical trapping at the lipid/water interface: water-soluble ABAP-mediated oxidation; for effect of increasing equivalents of NAC on inhibited period: 4.5 μM compound, MeOAMVN and ABAP, NAC 1-5 equiv. (9) or 0-4 equiv. (5)
Method: FIG. 1 depicts representative fluorescence intensity-time profiles from MeOAMVN-mediated (0.2 mM) oxidations of egg phosphatidylcholine liposomes (1 mM) containing 0.15 μM H2BPMHC and increasing concentrations (1.5, 3.0, 4.5, 6.0, 7.5 and 15 μM) of 1 (A), 2 (B), 5 (C) and 8 (D—15 μM profile not shown); fluorescence (λex=485 nm; λem=520 nm) was recorded every 50 s;
FIG. 2 depicts representative fluorescence intensity-time profiles from MeOAMVN-mediated (0.2 mM, left) and ABAP-mediated (2.7 mM, right) oxidations of egg phosphatidylcholine liposomes (1 mM) containing 0.15 μM H2B-PMHC and either 2 (A, B) or 9 (C, D) at 4.5 μM (black), 7.5 μM (grey) or 15 μM (light grey) in PBS buffer of pH 7.4 containing an equivalent amount of NAC; panels E and F show the effect of NAC only (4.5, 7.5 and 15 μM); fluorescence (λex=485 nm; λem=520 nm) was recorded every 50 s; and
FIG. 3 depicts representative fluorescence-time profiles from MeOAMVN-mediated (0.2 mM, left) and ABAP-mediated (2.7 mM, right) oxidations of egg phosphatidylcholine liposomes (1 mM) containing 0.15 μM H2B-PMHC and either 4.5 μM 9 (A, B) with 1, 2, 3 or 5 equiv. of NAC or 4.5 μM 5 (C, D) with 0, 1, 2 or 4 equiv. of NAC; fluorescence (λex=485 nm; λem=520 nm) was recorded every 50 s.
To shed some light on this issue, the radical-trapping abilities of 1, 2 and 5 have been studied in unilamellar phosphatidylcholine liposomes—convenient models for the lipid bilayers that make up biological membranes. The relative reactivities of the compounds were determined using H2B-PMHC (6), an analog of α-tocopherol (7 or α-TOH, the most biologically-active form of Vitamin E and Nature's premier lipophilic radical-trapping antioxidant) (G. W. Burton, K. U. Ingold, Acc. Chem. Res. 1986, 19, 194-201), which undergoes a significant fluorescence enhancement upon oxidation by two equivalents of peroxyl radical. In the presence of a good radical-trapping antioxidant, the fluorescence onset is suppressed since the radicals are trapped by the compound under investigation in lieu of reacting with H2B-PMHC.
Initial experiments focused on the ability of either 1 or 2 to inhibit the oxidation of liposome-embedded H2B-PMHC by either lipophilic or hydrophilic peroxyl radicals derived from the azo initiators MeOAMVN (N. Noguchi, H. Yamashita, N. Gotoh, Y. Yamamoto, R. Numano, E. Niki, Free Rad. Biol. Med. 1998, 24, 259-268) and ABAP, (L. R. C. Barclay, S. J. Locke, J. M. MacNeil, J. VanKessel, G. W. Burton, K. U. Ingold, J. Am. Chem. Soc. 1984, 106, 2479-2481) respectively. Representative results are shown for MeOAMVN-mediated oxidations in FIG. 1. […] Since the reactivity of H2B-PMHC is essentially the same as that of α-TOH, the efficacy of 1 and 2 must therefore be less than 1/100 that of α-TOH in a lipid bilayer.
The time required to reach maximum fluorescence in the first phase of the plots in FIG. 1 (ca. 400 counts), which we will hereafter refer to as the ‘inhibited period’, reflects the stoichiometry of the reaction of the antioxidant and the peroxyl radicals. […] Chem. Int. Ed. 2009, 48, 157-160; and R. Amorati, P. T. Lynett, L. Valgimigli, D. A. Pratt, Chem. Eur. J. 2012, 18, 6370-6379)

[2] = Decomposition / Cope elimination half-life (HPLC); format: physicochemical
Source text: The lack of radical-trapping activity of allicin and petivericin obvious from FIGS. 1A and 1B could be due to their partitioning to the aqueous phase, where Cope elimination to produce the reactive sulfenic acids 3 and 4, respectively, is slowed dramatically by H-bonding. (V. Vaidya, K. U. Ingold, D. A. Pratt, Angew. Chem. Int. Ed. 2009, 48, 157-160; P. T. Lynett, K. Butts, V. Vaidya, G. E. Garrett, D. A. Pratt, Org. Biomol. Chem. 2011, 9, 3320-3330; E. Block, Angew. Chem. Int. Ed. Engl. 1992, 31, 1135-1178; and F. Freeman, Y. Kodera, J. Agric. Food Chem. 1995, 43, 2332-2338] However, the half-life for decomposition of allicin in the liposome solutions (determined by HPLC) was extended by only 50% compared to that determined in non-H-bonding organic solvents (˜60 minutes). (V. Vaidya, K. U. Ingold, D. A. Pratt, Angew. Chem. Int. Ed. 2009, 48, 157-160; P. T. Lynett, K. Butts, V. Vaidya, G. E. Garrett, D. A. Pratt, Org. Biomol. Chem. 2011, 9, 3320-3330). This is consistent with a previous report which provides a partition coefficient for allicin in phosphatidylcholine:water of Kp=11 (T. Miron, A. Rabinkov, D. Mirelman, M. Wilchek, L. Weiner, Biochim. Biophys. Acta 2000, 1463, 20-30). The Cope elimination of 3 from petivericin was roughly identical—with a half-life of ˜90 minutes (see Supp. Info.). […]

[3] = chlorobenzene, 37° C., same conditions; cited from earlier work
[4] = Peroxyl radical clock (methyl linoleate oxidation, Z,E:E,E product ratio by HPLC); details: for kinh/kinh (C6BPT): chlorobenzene at 37° C., peroxyl radical clock
Method: The kinetics of reaction of p-n-C6H13-BPT with peroxyls was studied using a method based on the peroxyl radical clocks described in Roschek, B.; Tallman, K. A.; Rector, C. L.; Gillmore, J. G.; Pratt, D. A.; Punta, C.; Porter, N. A. J. Org. Chem. 2006, 71, 3527-3532.
Stock solutions of methyl linoleate (“MeLin”) (1.0 M), methoxy 2,2′-Azobis(4-methoxy-2,4-dimethyl valeronitrile) (“MeOAMVN”) (0.1 M), and the thiosulfinates, BPT and p-n-C6H13-BPT 5, were prepared in chlorobenzene. Samples were assembled in 1 mL HPLC autosampler vials with a total reaction volume of 100 μL. Solutions were prepared in the following order to avoid premature oxidation:thiosulfinate (1 mM-7 mM), MeLin (0.10 M) and then MeOAMVN (0.01 M), and diluted to 100 μL with chlorobenzene. The sealed samples were then heated to 37° C. for 2 h. After 2 h, the oxidation was stopped by the addition of butylated hydroxytoluene (“BHT”) (50 μL of 1.0 M solution in hexanes), followed by reduction of the hydroperoxides to alcohols by triphenylphosphine (50 μL of 1 M solution in chlorobenzene). The samples were then diluted to 1 mL with HPLC grade hexanes and analyzed by HPLC (0.5% i-PrOH in hexanes, 1 mL min-1, 40 min, Sun-Fire Silica, 5 mm 4.6×250 mm column, UV detection at 234 nm). The ratio of products (Z,E:E,E) was plotted versus thiosulfinate concentration to derive kH, (Roschek, B.; Tallman, K. A.; Rector, C. L.; Gillmore, J. G.; Pratt, D. A.; Punta, C.; Porter, N. A. J. Org. Chem. 2006, 71, 3527-3532).
The peroxyl radical clock method was used to measure the rate constants for the reaction of a furan-containing thiosulfinate compound (S-(furan-2-ylmethyl) furan-2-ylmethanesulfinothioate) with peroxyl radicals (kinh). The method relies on the competition between the β-fragmentation of a peroxyl radical and its trapping by a H-atom donor. When methyl linoleate is used as a precursor, the reduction of the two initially formed (Z,E)-dienylperoxyl radicals by the antioxidant (A-H in the scheme below) competes with their isomerization to the more thermodynamically stable (E,E)-dienylperoxyl radicals. […]

[5] = going from chlorobenzene to acetonitrile; cited from earlier work
[6] = known from literature under these conditions; cited from earlier work
[7] = radicals generated using MeOAMVN

[O-][S+](Cc1ccccc1)SCc1ccccc1 (stereo not shown) [BPT, S-Benzyl phenylmethane thiosulfinate]
effect on oxidation of liposome-embedded H2B-PMHC with one equivalent of NAC [1]: little effect
inhibition of oxidation of liposome-embedded H2B-PMHC [1]: neither 1 nor 2 were able to slow the oxidation
efficacy relative to α-TOH in a lipid bilayer [1]: less than 1/100
radical trapping at the lipid/water interface [1]: cannot
half-life ([2]; liposome solutions): ~1.5 h
kH [3]: 200000 M⁻¹ s⁻¹

CC(=O)N[C@@H](CS)C(=O)O [NAC, N-acetylcysteine]
effect of NAC alone on oxidation ([1]; ABAP-mediated, 4.5, 7.5 and 15 μM): only a modest retarding effect
effect of NAC alone on oxidation ([1]; MeOAMVN-mediated, 4.5, 7.5 and 15 μM): does little

[O-][S+](Cc1ccco1)SCc1ccco1 (stereo not drawn) [S-(furan-2-ylmethyl) furan-2-ylmethanesulfinothioate]
kinh/kinh (C6BPT) [4]: 1.1

C=CCS[S+]([O-])CC=C (stereo not shown) [compound 1, allicin]
effect on oxidation of liposome-embedded H2B-PMHC with one equivalent of NAC [1]: little effect
inhibition of oxidation of liposome-embedded H2B-PMHC [1]: neither 1 nor 2 were able to slow the oxidation
efficacy relative to α-TOH in a lipid bilayer [1]: less than 1/100
radical trapping at the lipid/water interface [1]: cannot
extension of half-life for decomposition in liposome solutions compared to non-H-bonding organic solvents ([2]; HPLC): 50%

OSC12c3ccccc3C(c3ccccc31)c1ccccc12 [compound 5, 9-triptycenesulfenic acid]
effect of increasing equivalents of NAC on inhibited period [1]: the inhibited period was extended with increasing concentration of NAC
inhibition of oxidation of liposome-embedded H2B-PMHC [1]: excellent concentration-dependent radical-trapping activity
rate of H2B-PMHC oxidation (fluorescence increase) ([1]; MeOAMVN-mediated, in presence of compound): essentially nil
number of peroxyl radicals trapped (stoichiometry) ([1]; implied from slope relative to 8): one
slope of inhibited period versus concentration ([1]; radicals generated using AAPH): 10 min/µM
slope of inhibited period versus concentration [1, 7]: 14 min/µM
radical trapping at the lipid/water interface [1]: can trap radicals at the lipid/water interface

Cc1c(C)c2c(c(C)c1O)CC[C@@](C)(CCC[C@H](C)CCC[C@H](C)CCCC(C)C)O2 [compound 7, α-tocopherol]
slowing of rate of reaction with peroxyl radicals by H-bond accepting solvent [5]: 20 fold

Cc1c(C)c2c(c(C)c1O)CCC(C)(C)O2 [compound 8, PMHC]
slope of inhibited period versus concentration ([1]; radicals generated using AAPH): 21 min/µM
slope of inhibited period versus concentration [1, 7]: 31 min/µM
radical trapping at the lipid/water interface [1]: can trap radicals at the lipid/water interface
number of peroxyl radicals trapped (stoichiometry) [6]: two

CCCCCCc1ccc(CS[S+]([O-])Cc2ccc(CCCCCC)cc2)cc1 (stereo not shown) [compound 9]
effect of increasing equivalents of NAC on inhibited period [1]: proportionately increased the inhibited period
effect on oxidation of liposome-embedded H2B-PMHC with one equivalent of NAC [1]: pronounced inhibited period
inhibition of oxidation of liposome-embedded H2B-PMHC [1]: essentially indistinguishable from those supplemented with allicin and petivericin

CCCCCCc1ccc(CS[S+]([O-])Cc2ccc(CCCCCC)cc2)cc1 (stereo not shown) [p-n-C6H13-BPT 5, p-n-C6H13-Benzyl phenylmethane thiosulfinate]
kinh/kinh (C6BPT) [4]: 1.0^a
rate constant relative to that of BPT ([4]; chlorobenzene, 37° C., MeLin 0.10 M, MeOAMVN 0.01 M): about 1.6 fold
